Patent publication US9415017B2, “Bacterial ghosts for mediating innate immunity” (priority 2010, dated 2016)

What was measured:
[1] = tested on: NO production in RAW 264.7 cells; experiment: nitrite assay (Griess reaction) for NO production; assay type: cell-based, murine; conditions: for impact on BG-induced NO-generation: NO after 20 hours
Protocol: RAW 264.7 cells were seeded in 96 well plates and were cultured for two days. […] Thereafter, the bacterial ghost suspensions were removed by twice washing with PBS and the cells were incubated for another 20 hours in the dark at 37° C. 5% CO2. In order to investigate the stimulatory impact of pure LPS (Fluka; E. coli serotype 055:B5), long-term incubation experiments with various LPS concentrations were conducted for 20 hours.
As an indicater of NO production, nitrite concentration was measured in the supernatant of the macrophages by use of the Griess reaction (Green et al., 1982 Anal Biochem. 126(1): p. 131-8). In short, 100 μl of each supernatant was mixed with 90 μl 1% sulphanilamide (Fluka) in 5% H3PO4 and 90 μl of N-(1-Naphthyl) ethylene diamine dihydrochloride in water. The absorbance was determined at 550 nm with an ELISA reader (Tecan Sunrise).

RAW 264.7 cells = experiment: neutral red cytotoxicity assay; assay type: cell-based, murine
Description: The neutral red assay was used to test the impact of empty or RV-loaded BGs as well as the chemical per se on the viability of RAW 264.7 cells. Neutral red (3-amino-m-dimethylamino-2methyl-phenazine hydrochloride) selectivly accumulates in lysosomes of living cells (Repetto et al. 2008. Nat Protoc, 2008. 3(7): p. 1125-31) and provides therefore a quantitative assessment of viablitity.
Individual wells of 96-well plates were inoculated with 1.25×10^5 cells and were allowed to attach overnight. Macrophages were treated with 200 μl medium containing RV-loaded and unloaded BGs (all resuspended in sf-medium) in different BG to cell ratios (10, 100, 1000) or with RV alone for either 20 min followed by a 20 hour recovery period or 24 hours. The same conditions were performed with two RV-concentrations (15 μM and 30 μM). Triton X-100 (0.01%) served as a positive control and cells treated with test medium represent the negative control. After treatment, the cells were washed twice with PBS and were incubated either with culture medium for 20 hours or directly with 100 μl of NR (80 μg/ml final concentration) for another two hours (37° C.; 5% CO2). Thereafter, the dye was discarded and the wells were washed two times with PBS. Extraction of the dye was accomplished by addition of 100 μl of the acidic destaining solution (1 ml acetic acid, 73 ml 96% ethanol and 26 ml deionized water). The plates were shaken for 10 min and the developed color was measured by a plate reader (Dynex OpsysMR) at 570 nm (reference wavelength 690 nm).

For Oc1ccc(C=Cc2cc(O)cc(O)c2)cc1 [RV, resveratrol], the “impact on BG-induced NO-generation” value ([1]; 0.3 μM and 0.3 μM RV with empty BGs at ratio 500, 20 min) was “no impact”, the “impact on BG-induced NO-generation” value ([1]; 30 μM RV with empty BGs at ratio 500, 20 min) was “Statistically significant difference” and the “reduction of nitrite compared to empty BGs alone” value ([1]; BG to cell ratio of 100, RV-loaded ghosts or 3 μM RV with empty BGs) was “no effect”. The “reduction of NO compared to empty BGs alone” value ([1]; MOI of 1000, RV-ghosts or 3 μM RV coevally with empty BGs) was “reduction”, the cell viability (RAW 264.7 cells; 15 μM RV) was “no impact at all” and the cell viability (RAW 264.7 cells; 30 μM RV) was 81.23 ± 10.6%. The loss of viability (RAW 264.7 cells; 30 μM RV) was 20% and the cell viability (RAW 264.7 cells; short-term coincubation (20 min, measured after 20 hours)) was “no effects”.
